Assay results: patent US4861889A, “3-(2,3,4,5,6-pentafluorophenoxy)-8-azabicyclo[3.2.1]octanes” (Hoechst-Roussel Pharmaceuticals, Inc., priority 1988, dated 1989)
Where a name gives a salt, the structure may show the parent alone.

Key:
[1] = phenyl-p-benzoquinone writhing assay (analgesic activity); assay type: in vivo, male mice (Charles River, CD-1); settings: Mus musculus, sc, mice; for inhibition in vivo at 20 mg/kg: s.c., read-out: % Inhibition of writhing at a screening dose of 20 mg/kg, s.c.
Procedure: The compounds of this invention are useful as analgesic agents due to their ability to alleviate pain in mammals. The procedure employed to determine analgetic utility is a modification of the phenyl-p-benzoquinone writhing assay in mice, a standard assay for analgesia [Proc. Soc. Exptl. Bio. Med., 95, 729 (1957)]. Pursuant to the modified procedure phenyl-p-benzoquinone (Eastman, 12.5 mg) is dissolved in 5 ml of 95% ethanol and the solution is diluted to a total volume of 100 ml with distilled water. The solution is administered to the subject mice intraperitoneally at a dose of 10 ml per kg of body weight. A characteristic "writhe"an inward rotation of one or more feet with twisting and turning of the trunk, drawing in of the abdominal wall, lordosis and arching of the back, is produced.
A total of 28 male mice (Charles River, CD-1), weighing 18 to 30 grams, are employed for a time response. The subject animals receive food and water ad libitum. Test compounds are dissolved in distilled water, or suspended in distilled water containing one drop of a suitable surfactant, such as Tween-80.
Four groups of five animals (20 animals) are given the test compound subcutaneously (s.c.) or orally (p.o.) at 15, 30, 45 and 60 minutes prior to administration of the phenyl-p-quinone. A control group (2 animals per group) receive an equal volume of the vehicle. After the administration of the phenyl-p-quinone, the mice are place separately in one liter beakers, and after five minutes, are observed for ten minutes. The number of writhes for each animal is recorded. The following formula is used to compute the percent inhibition: [formula]
The time period with the greatest percent of inhibition is considered the peak time.

[2] = L-5-hydroxytryptophan (5-HTP) potentiation assay, antidepressant activity; assay type: in vivo, male Wistar rats; settings: Rattus norvegicus, ip, read-out: 5-HTP Potentiation ED50
Procedure: The compounds of this invention are also useful as antidepressants by virtue of their ability to elicit an antidepressant response in mammals. Antidepressant activity is determined by the L-5-hydroxytryptophan potentiation assay in rats described in Brit. J. Pharmacol., 20, pp. 106-120 (1963) and J. Med. Chem., 24, 74 (1980).
Groups of six male Wistar rats (150-200 grams each) are used in this assay. Pursuant to this procedure pargyline hydrochloride is prepared and administered four hours before testing by subcutaneous injection at 75 mg/kg in 1% saline and at dosage volume of 1.0 ml/kg. Thirty minutes before testing, drugs are prepared and dosed using distilled water and, if insoluble, a suitable surfactant is added. Control groups receive vehicle. Drugs are routinely administered intraperitoneally at a dosage volume of 10 ml/kg. L-5-hydroxytryptophan (5-HTP) is prepared at 1.0 mg/kg in distilled water and is administered intraperioneally in volumes proportional to 10 ml/kg. Drugs are administered in a randomized manner and 15 minutes post 5-HTP treatment, the animals are observed for 15 minutes.
Potentiation is expressed as normalized percent potentiation relative to vehicle control.

[3] = antihypertensive activity, indirect tail cuff method (SHR); assay type: in vivo, spontaneous hypertensive rat; settings: treated three days, drop measured on third day, decrease in mean arterial blood pressure
Procedure: The compounds of this invention are also useful as antihypertensive agents due to their ability to depress blood pressure in mammals. Antihypertensive activity is measured in the spontaneous hypertensive rat by the indirect tail cuff method described in "Methods in Pharmacology", A. Schwartz, Ed., Vol. I, Appleton-Century Crofts, New York, N.Y., 1971, p. 135. In this procedure a group of five animals is treated orally for three days with the test compound in relation to a control group of the same number. The drop in blood pressure is measured on the third day following administration. The antihypertensive activities of representative compounds, expressed as a decrease in mean arterial blood pressure (in mm Hg), are given in Table 3 along with the activity of a standard compound.

[4] = supramaximal electroshock (SES) assay, anticonvulsant activity; assay type: in vivo, male mice (Charles River, CD-1); settings: Mus musculus, ip, mice
Procedure: (§1) The compounds of this invention are also useful as anticonvulsants due to their anticonvulsant activity in mammals. Anticonvulsant activity is measured in male mice using the supramaximal electroshock (SES) assay described in Arch. Int. Pharmacodyn. 92, pp. 97-107, (1952) and the metrazol lethality assay (MTZ) described in J. Pharmacol. Exp. Ther., 81, 402 (1944).
Groups of male mice (Charles River, CD-1) weighing 18 to 30 g are employed in the SES assay. Test compounds are dissolved in distilled water, or if insoluble, suspended in water containing one drop of a surfactant, such as Tween-80. Test compounds are generally administered intraperitoneally at a dose of 10 ml of solution, or suspension, per kg of animal body weight. The output terminals of an A.C. shocker, which delivers 206 volts rms for 300 msec, are placed across the animals' eyes, an electrode paste coating assuring contact of the terminals with the eyes. The test compound is administered and thereafter the subject animals are shocked.
Protection is expressed as normalized percent inhibition relative to vehicle control. [formula] A time response is carried out using 6 animals per group. Animals are tested at 30, 60 and 120 minutes post drug. Additional time periods are tested if indicated by previous tests. A dose range determination is generally reserved for those compounds which inhibit convulsions by greater than about 45-55% at the screening dose employed at the time the test was performed. When the peak activity time has been determined, a dose response is initiated, using 10 animals per group at that time period.
The anticonvulsant activity of several of the compounds of this invention as per the SES and MTZ assay procedures is provided in Table 2.

[5] = Metrazol lethality assay (MTZ), anticonvulsant activity; assay type: in vivo, male mice (Charles River, CD-1); settings: Mus musculus, po, mice, protection against Metrazol lethality
Procedure: as §1
Groups of male mice (Charles River, CD-1), weighing 18 to 30 grams are employed in the Metrazol lethality assay. Test compounds are dissolved in distilled water or if insoluble, suspended in water, to which a surfactant, such as Tween-80 is added. The test compounds are administered orally, the administered dose being dissolved or suspended in 10 ml of solution or suspension per kg of animal body weight. Control animals (2 mice/group) receive water or water and Tween-80, i.e., the vehicle for administration of the test compound. Metrazol (pentylenetetrazol) is dissolved in water (concentration 225 mg of Metrazol/10 ml of solution), and the solution is administered subcutaneously to groups of five animals each at one or more time intervals of 15, 30, 60, 90, or 120 minutes after administration of the test compound. The number of animal alive 15 minutes after treatment with Metrazol is determined and recorded. The following formula is employed to calculate the percent protection against Metrazol lethality. [formula] […]

Cc1[nH]c2ccccc2c1CCCN1[C@@H]2CC[C@H]1C[C@@H](Oc1c(F)c(F)c(F)c(F)c1F)C2 [(ENDO)-3-(2,3,4,5,6-PENTAFLUOROPHENOXY)-8-[3-(2-METHYLINDOL-3-YL)PROPYL]-8- AZABICYCLO[3.2.1]OCTANEHYDROCHLORIDE]
inhibition in vivo at 20 mg/kg [1]: 39%

COc1cc2onc(CCCN3[C@@H]4CC[C@H]3C[C@@H](Oc3c(F)c(F)c(F)c(F)c3F)C4)c2cc1OC [(ENDO)-3-(2,3,4,5,6-PENTAFLUOROPHENOXY)-8-[(5,6-DIMETHOXY-1,2-BENZISOXAZOL- 3-YL)PROPYL]-8-AZABICYCLO[3.2.1]OCTANEHYDROCHLORIDE]
inhibition in vivo at 20 mg/kg [1]: 37% | ED50 [2]: 21.1 mg/kg

Fc1ccc2c(CCCN3[C@@H]4CC[C@H]3C[C@@H](Oc3c(F)c(F)c(F)c(F)c3F)C4)noc2c1 [(ENDO)-8-[3-(6-FLUORO-1,2-BENZISOXAZOL-3-YL)PROPYL]-3-(2,3,4,5,6-PENTAFLUOROPHENOXY)-8-AZABICYCLO[3.2.1OCTANE HYDROCHLORIDE]
inhibition in vivo at 20 mg/kg [1]: 45%

Cc1[nH]c2ccccc2c1CCCN1[C@@H]2CC[C@H]1C[C@H](Oc1c(F)c(F)c(F)c(F)c1F)C2 [(EXO)-3-(2,3,4,5,6-PENTAFLUOROPHENOXY)-8-[3-(2-METHYLINDOL-3-YL)PROPYL]-8-AZABICYCLO[3.2.1]OCTANE HYDROCHLORIDE]
inhibition in vivo at 20 mg/kg [1]: 42%

Fc1ccc2c(CCCN3[C@@H]4CC[C@H]3C[C@H](Oc3c(F)c(F)c(F)c(F)c3F)C4)noc2c1 [(EXO)-8-[3-(6-FLUORO-1,2-BENZISOXAZOL-3-YL)PROPYL]-3-(2,3,4,5,6-PENTAFLUOROPHENOXY)-8-AZABICYCLO[3.2.1]OCTANE HYDROCHLORIDE]
inhibition in vivo at 20 mg/kg [1]: 49% | mm dec. in BP at 50 mg/kg p.o. [3]: 48 mm

COc1ccccc1N1CCN(CCCN2[C@@H]3CC[C@H]2C[C@@H](Oc2c(F)c(F)c(F)c(F)c2F)C3)CC1 [(endo)-3-(2,3,4,5,6-pentafluorophenoxy)-8-[3-[4-(2-methoxyphenyl)piperazin-1-yl]propyl]-8-azabicyclo[3.2.1]octane]
inhibition in vivo at 20 mg/kg [1]: 55%

CP(C)(=O)CN1[C@@H]2CC[C@H]1C[C@@H](Oc1c(F)c(F)c(F)c(F)c1F)C2 [(endo)-3-(2,3,4,5,6-pentafluorophenoxy)-8-[(dimethylphosphinyl)methyl]-8-azabicyclo[3.2.1]octane]
ED50 [2]: 10.8 mg/kg

Fc1c(F)c(F)c(O[C@H]2C[C@H]3CC[C@@H](C2)N3)c(F)c1F [(endo)-3-(2,3,4,5,6-pentafluorophenoxy)-8-azabicyclo[3.2.1]octane hydrochloride]
ED50 [2]: 15.6 mg/kg

CN1[C@@H]2CC[C@H]1C[C@](Oc1c(F)c(F)c(F)c(F)c1F)(c1ccccc1)C2 [(endo)-3-(2,3,4,5,6-pentafluorophenoxy)-8-methyl-3-phenyl-8-azabicyclo[3.2.1]octane hydrochloride]
inhibition in vivo at 20 mg/kg [1]: 42%

CN1[C@@H]2CC[C@H]1C[C@@H](Oc1c(F)c(F)c(F)c(F)c1F)C2 [(endo)-3-(2,3,4,5,6-pentafluorophenoxy)-8-methyl-8-azabicyclo[3.2.1]octane]
ED50 [2]: 16.2 mg/kg

NC(=O)N1[C@@H]2CC[C@H]1C[C@@H](Oc1c(F)c(F)c(F)c(F)c1F)C2 [(endo)-8-aminocarbonyl-3-(2,3,4,5,6-pentafluorophenoxy)-8-azabicyclo[3.2.1]octane]
inhibition in vivo at 20 mg/kg [1]: 38% | ED50 [4]: 25.2 mg/kg | ED50 [5]: 12.7 mg/kg

CN(C)C(=O)N1[C@@H]2CC[C@H]1C[C@H](Oc1c(F)c(F)c(F)c(F)c1F)C2 [(exo)-3-(2,3,4,5,6-pentafluorophenoxy)-8-[(N,N-dimethylamino)carbonyl]-8-azabicyclo[3.2.1]octane]
inhibition in vivo at 20 mg/kg [1]: 39%

Fc1c(F)c(F)c(O[C@@H]2C[C@H]3CC[C@@H](C2)N3)c(F)c1F [(exo)-3-(2,3,4,5,6-pentafluorophenoxy)-8-azabicyclo[3.2.1]octane]
ED50 [2]: 8.4 mg/kg

NC(=O)N1[C@@H]2CC[C@H]1C[C@H](Oc1c(F)c(F)c(F)c(F)c1F)C2 [(exo)-8-(aminocarbonyl)-3-(2,3,4,5,6-pentafluorophenoxy)-8-azabicyclo[3.2.1]octane]
inhibition in vivo at 20 mg/kg [1]: 32%

CC(=O)N1[C@@H]2CC[C@H]1C[C@H](Oc1c(F)c(F)c(F)c(F)c1F)C2 [(exo)-8-acetyl-3-(2,3,4,5,6-pentafluorophenoxy)-8-azabicyclo[3.2.1]octane]
ED50 [5]: 41.9 mg/kg

CC(=O)Oc1ccccc1C(=O)O [Asprin, reference compound]
ED50 ([1]; column head s.c., read-out: ED50 (calculated dosage at which a 50% inhibition of writhing is achieved)): 32.8 mg/kg

CN(C)CCC=C1c2ccccc2CCc2ccccc21 [amitriptyline, reference compound]
ED50 ([2]; rats): 7.1 mg/kg

CN1[C@@H]2CC[C@H]1C[C@@H](Oc1c(F)c(F)c(F)c(F)c1F)C2 [endo-3-(2,3,4,5,6-pentafluorophenoxy)-8-methyl-8-azabicyclo[3.2.1]octane oxalate]
inhibition in vivo at 20 mg/kg [1]: 49%

CC(=O)N1[C@@H]2CC[C@H]1C[C@@H](Oc1c(F)c(F)c(F)c(F)c1F)C2 [endo-8-acetyl-3-(2,3,4,5,6-pentafluorophenoxy)-8-azabicyclo[3.2.1]octane]
ED50 [4]: 35.1 mg/kg

CN1[C@@H]2CC[C@H]1C[C@H](Oc1c(F)c(F)c(F)c(F)c1F)C2 [exo-3-(2,3,4,5,6-pentafluorophenoxy)-8-methyl-8-azabicyclo[3.2.1]octane hydrochloride]
inhibition in vivo at 20 mg/kg [1]: 43% | ED50 [2]: 13.4 mg/kg

N=C(N)NCCN1CCCCCCC1 [guanethidine, reference compound]
mm dec. in BP at 50 mg/kg p.o. [3]: 20 mm

CCC1(c2ccccc2)C(=O)NC(=O)NC1=O [phenobarbital, reference compound]
ED50 [4]: 8.4 mg/kg
